IC50 data for 6 compounds are collected here from US20250122221A1 (NANJING ZAIMING PHARMACEUTICAL CO., LTD., priority 2022, published 2025).

pIC50: −log10 of the molar value. Read-outs that look alike come from different tables or passages of the source.

Experiment [1] concerns the target N-terminal active peptide segment (MI-N899) of POLQ with ATPase activity (Homo sapiens (Human), UniProt O75417). Kind of experiment: POLQ enzyme activity inhibition experiment (ATPase, NADH-coupled, OD 340 nm). Format: biochemical. Conditions: 100 nM POLQ (N), 100 μM ATP, 300 nM dT50.
Experiment [2] has as its system DLD-1 BRCA2 (−/−) cells. Kind of experiment: Inhibition of tumour cell proliferation, 7 days, CTG. It is filed as cell-based. Conditions: Homo sapiens, read-out: DLD-1 BRCA2 (−/−) IC50. The procedure:
(§1) Brief introduction to the experimental principle: The compounds were co-incubated with tumour cells for 7 days, and then a CTG kit from Promega Inc was used to quantify ATP in viable cells, thus reflecting the effect of the compounds on tumour cell proliferation.
(§2) Experimental method: DLD-1 parental cells or DLD-1 BRCA2 (−/−) cells were diluted with RPMI 1640 medium containing 10% FBS, and then added to a 96-well plate (90 μL/well), with the number of cells being 600 cells/well or 1200 cells/well, respectively, and cultured overnight in a 37° C., 5% CO2 incubator. The compounds to be tested were diluted to different concentrations in dimethyl sulfoxide (DMSO), and then added to a 96-well plate. The final concentration of the compounds in the reaction system started from 25 μM, and was subjected to 4-fold gradient dilution. The concentration range of the compounds was from 25 μM to 0.0004 μM, and the final concentration of DMSO was 0.25% v/v. After 7 days of incubation, 50 μL/well CTG was added, and the mixture was incubated at room temperature for 10 minutes. Subsequently, the luminescence (Lum) signal value was read with an Envision microplate reader, and the inhibition rate and half inhibitory concentration (IC50) were calculated.
(§3) The inhibition rate was calculated, and XLfit software was used to perform fitting to obtain IC50 of the compounds.
(§4) In the experiment, a blank well and a DMSO well were set up, respectively.
(§5) Inhibition rate=100*(Lummax−Lumcompound)/(Lummax−Lummin)%, • where Lummax refers to the luminescence signal value of the well containing cells and 0.25% v/v DMSO; Lumcompound refers to the luminescence signal value of the well containing the compound and cells; and Lummin refers to the luminescence signal value of the well containing the medium and 0.25% v/v DMSO.

The subject of experiment [3] is DLD-1 parental cells. Described as above. Format: cell-based. As to conditions: Homo sapiens, read-out: DLD-1 parental cell IC50. How it is done: as §1, §2, §3, §4, §5
[4] abbreviates: 168 h, DLD-1 BRCA2 (−/−) cells, 7 days of incubation, CTG.
The mark [5] stands for this setting: 168 h, DLD-1 parental cells, 7 days of incubation, CTG.

Sequence of N-terminal active peptide segment (MI-N899) of POLQ with ATPase activity (O75417 1-899 limits assumed): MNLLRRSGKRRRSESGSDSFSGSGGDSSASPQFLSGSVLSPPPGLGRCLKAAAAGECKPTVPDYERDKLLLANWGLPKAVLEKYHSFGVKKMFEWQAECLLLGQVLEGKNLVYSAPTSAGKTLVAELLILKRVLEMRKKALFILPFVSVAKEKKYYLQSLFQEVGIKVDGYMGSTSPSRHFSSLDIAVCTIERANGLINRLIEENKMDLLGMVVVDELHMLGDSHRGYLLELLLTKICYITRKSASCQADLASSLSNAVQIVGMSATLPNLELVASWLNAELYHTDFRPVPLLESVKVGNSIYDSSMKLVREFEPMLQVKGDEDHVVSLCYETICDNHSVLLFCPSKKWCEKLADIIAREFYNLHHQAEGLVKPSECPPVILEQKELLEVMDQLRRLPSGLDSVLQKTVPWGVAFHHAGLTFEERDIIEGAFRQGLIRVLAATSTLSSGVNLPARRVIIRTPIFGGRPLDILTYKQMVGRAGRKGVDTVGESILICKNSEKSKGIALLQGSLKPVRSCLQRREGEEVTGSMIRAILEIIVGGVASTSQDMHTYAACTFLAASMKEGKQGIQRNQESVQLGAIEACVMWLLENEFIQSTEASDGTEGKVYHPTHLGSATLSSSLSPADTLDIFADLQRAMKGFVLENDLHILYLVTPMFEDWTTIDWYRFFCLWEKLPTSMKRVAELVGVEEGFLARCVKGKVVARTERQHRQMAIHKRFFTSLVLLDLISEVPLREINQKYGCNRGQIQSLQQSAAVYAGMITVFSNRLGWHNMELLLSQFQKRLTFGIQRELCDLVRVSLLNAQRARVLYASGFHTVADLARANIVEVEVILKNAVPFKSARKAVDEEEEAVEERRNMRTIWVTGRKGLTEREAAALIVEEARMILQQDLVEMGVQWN

Consider `Cc1cc(-c2cc(Cl)ccc2OC2CC2)c(C(=O)Nc2nc3ncc(-c4ccc(C#N)cc4)nc3s2)cn1` [Compound 94, 4-(5-chloro-2-cyclopropoxyphenyl)-N-(6-(4-cyanophenyl)thiazolo[4,5-b]pyrazin-2-yl)-6-methylpyridine-3-carboxamide], for which the pIC50 was greater than 7.00 in experiment [1]; greater than 6.70 in experiment [2] (DLD-1, 168 h); less than 5.00 in experiment [3] (DLD-1, 168 h).

Turning to `COc1ccccc1-n1cncc1C(=O)Nc1nc2ncc(-c3ccc(C#N)cc3)nc2s1` [Compound 32, N-(6-(4-cyanophenyl)thiazolo[4,5-b]pyrazin-2-yl)-1-(2-methoxyphenyl)-1H-imidazole-5-carboxamide], the values for the pIC50 in experiment [1], in experiment [2] (setting [4]) and in experiment [3] (setting [5]) were greater than 7.00, 6.30 to 6.70 and less than 5.00, respectively.

`COc1ccc(Cl)cc1-c1cc(C)ncc1C(=O)Nc1nc2ncc(-c3ccc(C#N)cn3)nc2s1` [Compound 26, 4-(5-chloro-2-methoxyphenyl)-N-(6-(5-cyanopyridin-2-yl)thiazolo[4,5-b]pyrazin-2-yl)-6-methylnicotinamide]: the figures for the pIC50 in experiment [1], in experiment [2] (setting [4]) and in experiment [3] (setting [5]) were greater than 7.00, greater than 6.70 and less than 5.00, respectively.

Consider `COc1cnc(C)cc1-c1cc(C)ncc1C(=O)Nc1nc2ncc(-c3ccc(C4CC4)cc3)nc2s1` [Compound 82, N-(6-(4-cyclopropylphenyl)thiazolo[4,5-b]pyrazin-2-yl)-5′-methoxy-2′,6-dimethyl-[4,4′-bipyridine]-3-carboxamide], for which the pIC50 was greater than 7.00 in experiment [1], greater than 6.70 in experiment [2] (setting [4]) and less than 5.00 in experiment [3] (setting [5]).

For the compound `COc1ccc(C2CC2)cc1-c1cc(C)ncc1C(=O)Nc1nc2ncc(-c3ccc(OC(F)F)cc3)nc2s1` [Compound 85, 4-(5-cyclopropyl-2-methoxyphenyl)-N-(6-(4-(difluoromethoxy)phenyl)thiazolo[4,5-b]pyrazin-2-yl)-6-methylpyridine-3-carboxamide], the pIC50 in experiment [1] is greater than 7.00; in experiment [2] (setting [4]), greater than 6.70; in experiment [3] (setting [5]), less than 5.00.

Take `COc1ccc(-c2cnc3nc(NC(=O)c4cnc(C)cc4-c4cc(C)ncc4OC)sc3n2)nc1` [Compound 75, 5′-methoxy-N-[6-(5-methoxypyridin-2-yl)thiazolo[4,5-b]pyrazin-2-yl]-2′,6-dimethyl-[4,4′-bipyridine]-3-carboxamide]: the pIC50 is greater than 7.00 in experiment [1]; greater than 6.70 in experiment [2] (DLD-1, 168 h); less than 5.00 in experiment [3] (DLD-1, 168 h).
